Measured values published in patent US20020110838A1, “Methods for assessing muscle protein wasting and therapeutics therefor” (priority 2000, published 2002).
“Also recorded” adds a separate entry of the source. Where a SMILES comes first, the peptide text is derived from it. The star is where a group is joined. Cbz = O=C(OCc1ccccc1)*

How the values were obtained:
14 kDa actin fragment [1] = assay: Actin cleavage in L6 cell extracts incubated at 37° C. (immunoblot of 14 kDa actin fragment); format: biochemical, rat
Description: The cell extracts were incubated at 37° C. for various times before proteins were separated and subjected to Western blot analysis using commercially available, affinity-purified, polyclonal antibodies directed against the carboxy-terminus of actin.
To support this conclusion, we incubated lysates of L6 muscle cells at 37° C. with recombinant caspase 3 and then used Western blotting and detected the appearance of the actin fragment.
To test for involvement of the proteasome, we added MG132, an inhibitor of proteasome activity (ProScript, Inc. Cambridge, Mass.), and ATP to cell extracts before the 3 hr incubation at 37° C..
L6 muscles cells were washed and collected in ice cold PBS. Cells were swelled in hypotonic buffer (5 mM Tris pH 8.0, 1 mM 2-mercaptoethanol, 1% glycerol, 1 mM EDTA, 1 mM EGTA containing 0.1 mM phenylmethanesulfonyl fluoride (PMSF), leupeptin (5 μg/ml) and aprotinin (5 μg/ml) on ice for 30 minutes, and the cells were then gently homogenized with twenty strokes of a dounce homogenizer, with the materials being kept on ice. Homogenates were centrifuged at 3500 rpm (about 2000×g) for 10 minutes to remove nuclei and cell debris.
To assess for proteolytic cleavage of actin, extracts (20 μg of total protein) were incubated in 20 μl reaction volumes containing 25 mM Hepes (pH 7.5), 5 mM EDTA, 5 mM DTT for 3 h at 37° C. Reactions were terminated by adding Laemmli sample buffer, proteins were separated by SDS-PAGE, and immunoblot detection of actin fragments was carried out with an anti-actin antibody (Sigma).
The proteins were then transferred to ECL hybond membranes, and blots were incubated with anti-actin antibodies (1:500 dilution) in 5% milk in TTBS for 2 hours at 37° C. Bound primary antibodies were detected with goat anti-rabbit IgG antibody conjugated with HRRP and analyzed with ECL Detection Kit.

14 kDa actin fragment [2] = assay: 14 kDa actin peptide in intact L6 cells, measured after lysis; format: cell-based, rat; design: 14 kDa actin peptide in intact L6 cells activated with staurosporine and treated with proteasome inhibitor: dose or concentration left out as unconfirmed
Description: Actin cleavage was measured in lysates immediately after lysis.
This fragment (and others) are then rapidly degraded by the ubiquitin-proteasome system. […] The cells were then lysed and tested for the presence of the 14 kDa actin peptide.

caspase 3 = assay: Caspase 3 activation in L6 muscle cells (immunoblot); format: cell-based, rat; settings: FIG. 4
Description: The caspase-specific proteins were separated by SDS-PAGE and visualized by immunoblotting with polyclonal antibodies prepared in response to the N-terminus of caspase 3.
Subsequently, proteins were separated and subjected to Western blot analysis using affinity-purified, polyclonal antibodies against the carboxy-terminus of actin (Sigma St. Louis, Mo.).

L6 muscle cells [3] = assay: Apoptosis by Death ELISA / DNA fragmentation in L6 muscle cells; format: cell-based, rat; settings: cultured L6 muscle cells, Death ELISA assay
L6 muscle cells [4] = assay: Degradation of endogenous proteins in cell extracts (release of free tyrosine); format: cell-based, rat; settings: 50 nM staurosporine 3 h; extracts 37° C. 3 h; exogenous ATP added
Description: L6 muscle cells were treated as marked, and lysates were incubated at 37° C. for 3 hours in the presence or absence of ATP (2 mM). Degradation of endogenous protein was monitored by measuring release of acid-soluble tyrosine from cell protein.
With this method, protein degradation in extracts of control cells was slightly less than that in extracts from staurosporine-treated cells. However, the 3 hour incubation at 37° C. could limit ATP and impair activity of the ubiquitin-proteasome system.
Protein degradation in cell extracts was assessed by measuring the net release of free tyrosine because muscles neither synthesizes nor degrades this amino acid (18,19). For 3 hours, 50 μg of cell extract proteins were incubated at 37° C. in 0.1 ml of reaction buffer (20 mM Tris (pH 7.6), 2 mM DTT, 10 mM MgCl2, 100 mM KCl, 5% glycerol) with or without 2 MM ATP.
Trichloroacetic acid (10% final concentration) was added and the amount of free tyrosine released from proteins was measured spectrofluorometrically. Alternatively, total cell protein can be labeled by growth in the presence of one or more radioactive amino acids, e.g., ^14C-labeled or ^3H-labeled, and solubilization of radioactive label can be measured with the use of liquid scintillation counting.

epitrochlearis muscles = assay: Protein degradation in incubated epitrochlearis muscles; design: species or system rat; settings: epitrochlearis muscles in Krebs-Henseleit bicarbonate buffer with vs without inhibitor
Description: Rats were treated with streptozotocin and compared to pair-fed, rats injected with saline as described (4,26). Crude muscle lysates were isolated from acutely diabetic and control rats and examined for the presence of the 14 kDa actin fragment. A significant amount of this actin fragment was present in the muscle of diabetic rats compared to results from control rats. Finally, epitrochlearis muscles were incubated in Krebs-Henseleit bicarbonate buffer with or without the addition of the cell-permeable inhibitor of caspase 3, Ac-DEVD-Cho.

14 kDa actin fragment [5] = assay: Serum starvation-induced actin cleavage in L6 muscle cells; format: cell-based, rat; settings: for serum starvation-induced actin cleavage: serum-starved L6 cells, 10 nM hormone added
Description: Physiological conditions trigger caspase 3-mediated actin cleavage . To examine whether a catabolic condition that is known to accelerate protein degradation in muscle cells also involves actin cleavage, L6 muscle cells were activated by 24 h of serum starvation (0.5% FBS) and cell lysates were prepared. […] Additional evidence for involvement of apoptosis-associated pathways was obtained by activating L6 cells using the serum starvation procedure and then adding insulin or IGF I because either hormone can prevent serum starvation induced apoptosis (24,25).

Nc1ncnc2c1ncn2[C@@H]1O[C@H](COP(=O)(O)OP(=O)(O)OP(=O)(O)O)[C@@H](O)[C@H]1O [ATP]
amount of the 14 kDa peptide vs same extract without added ATP (14 kDa actin fragment [1]; 2 mM ATP added to extracts from staurosporine-treated cells, 3 hr, 37° C.): significantly reduced

CC(C)C[C@@H](C=O)NC(=O)[C@H](CC(C)C)NC(=O)[C@H](CC(C)C)NC(=O)OCc1ccccc1 [MG132] (Cbz-Leu-Leu-Leu-aldehyde)
14 kDa actin peptide in intact L6 cells activated with staurosporine and treated with proteasome inhibitor (14 kDa actin fragment [2]; 24 hr staurosporine plus MG 132): readily detected
14 kDa actin fragment in intact L6 cells, agent alone (14 kDa actin fragment [2]; L6 cells incubated 24 hr with single agent, then lysed): only a small amount
amount of the 14 kDa actin peptide with proteasome inhibitor in presence of ATP (14 kDa actin fragment [1]; MG132 and ATP added to cell extracts before 3 hr incubation at 37° C.): greater amounts

CN[C@@H]1C[C@H]2O[C@@](C)([C@@H]1OC)n1c3ccccc3c3c4c(c5c6ccccc6n2c5c31)C(=O)NC4 [staurosporine]
induction of caspase 3 activity (caspase 3): induces caspase 3 activity
activation of apoptosis (L6 muscle cells [3]): activates apoptosis
tyrosine release by extracts from staurosporine-treated cells vs control cell extracts (L6 muscle cells [4]): overall protein degradation is increased; also recorded: significantly higher

Ac-DEVD-Cho
reduction of the rate of muscle protein degradation (epitrochlearis muscles): 30%
accumulation of the 14 kDa actin fragment after serum starvation (14 kDa actin fragment [5]; 24 h serum starvation (0.5% FBS), inhibitor added to cell lysate during incubation): blocked the accumulation
appearance of the 14 kDa actin fragment with caspase 3 inhibitor (14 kDa actin fragment [1]; extracts of L6 cells treated with 10 nM staurosporine or serum starvation, 5 μM inhibitor for 3 hr): blocked the appearance of the actin fragment

Arg-Ala
amount of the 14 kDa actin fragment vs incubation with ATP alone (14 kDa actin fragment [1]; extracts of staurosporine-exposed L6 cells, 37° C., dipeptide (2 mM) and ATP): greater amount

IGF I
serum starvation-induced actin cleavage (14 kDa actin fragment [5]): effectively blocked

insulin
serum starvation-induced actin cleavage (14 kDa actin fragment [5]): effectively blocked
